The record followed here is patent US20190218214A1, “Inhibition of BMP Signaling Compounds, Compositions and Uses Thereof” (Vanderbilt University, priority 2016, published 2019).

One data set deals with TGFβR2 (Homo sapiens, UniProt P37173). The experiment in a line: Selectivity Ki, TGFβR2. Type of data set: biochemical.
A further data set concerns BMP4. The data set can be described thus: BMP4 biological assay (Table 3). Type of data set: cell-based.
A short description of data set [1]: Plasma protein binding, mouse. The note with it: read-out: Plasma protein binding (% Fu) Mouse. Type of data set: in vitro ADME.
The next data set deals with ALK3 (Homo sapiens, UniProt P36894). The experiment in a line: Selectivity Ki, ALK3. It is filed as biochemical.
ALK3, sequence (P36894 24-532, species assumed): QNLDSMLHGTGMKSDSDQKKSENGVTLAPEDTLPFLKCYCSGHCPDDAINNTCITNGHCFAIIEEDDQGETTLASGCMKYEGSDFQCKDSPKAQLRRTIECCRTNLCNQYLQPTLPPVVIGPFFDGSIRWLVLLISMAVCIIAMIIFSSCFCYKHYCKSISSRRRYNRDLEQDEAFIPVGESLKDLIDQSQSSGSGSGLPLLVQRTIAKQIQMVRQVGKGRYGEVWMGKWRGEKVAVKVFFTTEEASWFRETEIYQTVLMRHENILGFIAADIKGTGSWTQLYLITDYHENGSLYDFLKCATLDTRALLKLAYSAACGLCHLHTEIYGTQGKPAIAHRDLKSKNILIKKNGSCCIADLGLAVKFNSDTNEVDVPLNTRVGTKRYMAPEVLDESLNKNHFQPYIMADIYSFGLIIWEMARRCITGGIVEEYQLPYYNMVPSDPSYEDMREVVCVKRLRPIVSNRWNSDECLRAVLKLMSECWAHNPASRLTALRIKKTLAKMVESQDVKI
A short description of data set [2]: In vitro DMPK intrinsic clearance, mouse. Type of data set: in vitro ADME.
The target in the next data set is ALK1 (Homo sapiens, UniProt P37023). The experiment in a line: Selectivity Ki, ALK1. It is filed as biochemical.
ALK1, sequence (P37023 22-503, species assumed): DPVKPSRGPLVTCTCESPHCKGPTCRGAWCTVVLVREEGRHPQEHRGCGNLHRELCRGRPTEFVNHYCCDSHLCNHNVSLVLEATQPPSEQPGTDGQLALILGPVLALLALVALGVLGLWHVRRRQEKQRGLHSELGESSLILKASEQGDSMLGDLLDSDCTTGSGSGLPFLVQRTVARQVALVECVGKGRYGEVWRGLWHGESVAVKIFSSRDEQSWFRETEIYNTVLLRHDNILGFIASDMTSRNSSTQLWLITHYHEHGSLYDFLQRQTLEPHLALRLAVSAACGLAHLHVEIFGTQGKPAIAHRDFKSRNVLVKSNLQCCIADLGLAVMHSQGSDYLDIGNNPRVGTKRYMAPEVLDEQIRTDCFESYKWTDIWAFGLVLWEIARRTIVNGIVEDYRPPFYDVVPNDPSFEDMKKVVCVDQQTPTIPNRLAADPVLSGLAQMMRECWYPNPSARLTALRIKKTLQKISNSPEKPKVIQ
For a further data set, the target named is T1, BMPR2 (Homo sapiens, UniProt Q13873).
T1 sequence (Q13873 27-1038): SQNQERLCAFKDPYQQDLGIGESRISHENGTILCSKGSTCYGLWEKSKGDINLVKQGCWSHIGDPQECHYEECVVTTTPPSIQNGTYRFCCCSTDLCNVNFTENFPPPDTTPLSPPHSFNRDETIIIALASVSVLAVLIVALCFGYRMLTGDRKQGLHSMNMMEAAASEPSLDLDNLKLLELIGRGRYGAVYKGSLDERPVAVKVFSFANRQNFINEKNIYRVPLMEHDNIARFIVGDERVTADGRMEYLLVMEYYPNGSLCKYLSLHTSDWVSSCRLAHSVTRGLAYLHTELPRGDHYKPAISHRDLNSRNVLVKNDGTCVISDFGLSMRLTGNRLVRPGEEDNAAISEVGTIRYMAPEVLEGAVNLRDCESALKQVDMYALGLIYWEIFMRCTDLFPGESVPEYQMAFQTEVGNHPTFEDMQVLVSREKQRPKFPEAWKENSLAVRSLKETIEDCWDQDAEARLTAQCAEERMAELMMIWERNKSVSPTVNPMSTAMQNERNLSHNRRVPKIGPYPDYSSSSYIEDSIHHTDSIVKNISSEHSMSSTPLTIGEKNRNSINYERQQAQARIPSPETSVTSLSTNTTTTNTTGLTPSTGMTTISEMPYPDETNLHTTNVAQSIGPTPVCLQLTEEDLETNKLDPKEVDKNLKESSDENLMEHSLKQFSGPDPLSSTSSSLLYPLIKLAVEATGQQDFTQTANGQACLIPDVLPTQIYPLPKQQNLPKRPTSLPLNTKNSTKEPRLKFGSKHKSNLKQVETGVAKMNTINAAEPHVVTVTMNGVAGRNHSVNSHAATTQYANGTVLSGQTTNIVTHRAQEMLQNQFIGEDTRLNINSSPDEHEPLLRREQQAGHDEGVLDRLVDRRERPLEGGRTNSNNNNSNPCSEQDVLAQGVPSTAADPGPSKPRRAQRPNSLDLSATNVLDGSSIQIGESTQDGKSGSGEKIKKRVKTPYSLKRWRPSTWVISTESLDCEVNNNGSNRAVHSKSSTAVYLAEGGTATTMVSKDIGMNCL
The data set can be described thus: Selectivity Ki, BMPR2. Type of data set: biochemical.

Data set [3] relates to hepcidin expression. The data set can be described thus: IRIDA animal model, liver hepcidin mRNA 2 hours after injection. Type of data set: in vivo. The note with it: Tmprss6−/− mice, 2 hours after injecting (FIG. 13). As for the experimental part: The efficacy of compounds was shown in an IRIDA animal model. Initially, an exemplary dose and time point was determined in wild type mice. Briefly, liver mRNA and proteins were extracted. Hepcidin and Id1 mRNA expression was measured by real-time PCR and Smad 1-5-8 phosphorylation was assayed by Western blot analysis. FIGS. 10A-10D depict the RT-PCR data for various inflammatory markers in the liver. FIGS. 11A and 11B depict the RT-PCR data for Hamp mRNA and Id1 mRNA expression. FIG. 12A-12C depict the results of the Western blot analysis.

For a further data set, the target named is KDR (Homo sapiens, UniProt P35968). The data set can be described thus: Selectivity Ki, KDR. Type of data set: biochemical.
KDR, sequence (P35968 20-1356, species assumed): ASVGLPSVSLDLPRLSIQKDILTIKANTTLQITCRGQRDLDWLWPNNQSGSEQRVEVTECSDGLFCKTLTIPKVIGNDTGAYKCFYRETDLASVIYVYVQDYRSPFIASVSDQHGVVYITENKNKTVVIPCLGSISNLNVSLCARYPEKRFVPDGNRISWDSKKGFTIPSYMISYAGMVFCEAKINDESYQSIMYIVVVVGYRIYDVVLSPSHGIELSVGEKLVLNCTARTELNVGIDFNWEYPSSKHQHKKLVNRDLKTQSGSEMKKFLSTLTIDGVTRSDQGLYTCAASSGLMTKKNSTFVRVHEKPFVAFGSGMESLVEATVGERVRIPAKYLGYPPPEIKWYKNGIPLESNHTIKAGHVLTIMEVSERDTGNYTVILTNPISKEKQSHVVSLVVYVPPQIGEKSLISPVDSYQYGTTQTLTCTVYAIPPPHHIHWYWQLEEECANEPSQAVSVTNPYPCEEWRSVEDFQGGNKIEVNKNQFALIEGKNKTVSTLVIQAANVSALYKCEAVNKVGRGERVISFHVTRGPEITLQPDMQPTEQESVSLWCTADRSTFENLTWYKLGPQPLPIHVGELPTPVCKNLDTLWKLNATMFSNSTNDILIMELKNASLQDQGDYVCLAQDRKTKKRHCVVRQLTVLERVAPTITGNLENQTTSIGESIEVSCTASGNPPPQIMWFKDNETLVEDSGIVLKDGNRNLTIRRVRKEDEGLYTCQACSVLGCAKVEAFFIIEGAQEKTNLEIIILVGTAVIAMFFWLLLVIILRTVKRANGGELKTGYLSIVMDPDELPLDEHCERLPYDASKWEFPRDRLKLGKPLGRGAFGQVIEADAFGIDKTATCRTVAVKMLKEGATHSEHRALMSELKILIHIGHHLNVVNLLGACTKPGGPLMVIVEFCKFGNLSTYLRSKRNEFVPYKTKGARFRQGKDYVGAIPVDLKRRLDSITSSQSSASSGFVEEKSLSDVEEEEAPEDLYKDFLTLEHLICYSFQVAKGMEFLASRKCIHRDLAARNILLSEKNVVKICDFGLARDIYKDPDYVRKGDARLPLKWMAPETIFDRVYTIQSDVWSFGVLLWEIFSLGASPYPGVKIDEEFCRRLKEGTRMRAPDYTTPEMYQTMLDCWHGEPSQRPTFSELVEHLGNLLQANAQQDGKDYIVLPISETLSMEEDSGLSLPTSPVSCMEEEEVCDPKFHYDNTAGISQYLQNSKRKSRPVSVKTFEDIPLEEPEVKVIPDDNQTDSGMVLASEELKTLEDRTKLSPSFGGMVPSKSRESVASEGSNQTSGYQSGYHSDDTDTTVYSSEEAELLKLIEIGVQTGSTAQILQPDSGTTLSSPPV
A further data set has as its target T2, ALK5 (Homo sapiens, UniProt P36897).
T2 sequence (P36897 34-503): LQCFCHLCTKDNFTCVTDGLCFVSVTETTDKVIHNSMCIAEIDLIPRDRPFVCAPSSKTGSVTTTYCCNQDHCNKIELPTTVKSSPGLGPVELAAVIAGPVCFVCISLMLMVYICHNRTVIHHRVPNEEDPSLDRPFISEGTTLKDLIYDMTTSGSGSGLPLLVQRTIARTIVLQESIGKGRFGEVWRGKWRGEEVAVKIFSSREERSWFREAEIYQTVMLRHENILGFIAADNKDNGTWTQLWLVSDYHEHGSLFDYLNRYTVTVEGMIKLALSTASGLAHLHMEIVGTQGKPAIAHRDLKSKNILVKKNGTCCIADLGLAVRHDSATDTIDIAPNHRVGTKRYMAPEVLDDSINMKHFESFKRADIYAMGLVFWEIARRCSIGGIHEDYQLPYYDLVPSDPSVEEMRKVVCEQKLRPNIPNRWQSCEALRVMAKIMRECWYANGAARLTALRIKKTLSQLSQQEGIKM
The data set can be described thus: Selectivity Ki, ALK5. It is filed as biochemical.

For the next data set, the target named is T3, ALK4 (Homo sapiens, UniProt P36896).
T3 sequence (P36896 24-505): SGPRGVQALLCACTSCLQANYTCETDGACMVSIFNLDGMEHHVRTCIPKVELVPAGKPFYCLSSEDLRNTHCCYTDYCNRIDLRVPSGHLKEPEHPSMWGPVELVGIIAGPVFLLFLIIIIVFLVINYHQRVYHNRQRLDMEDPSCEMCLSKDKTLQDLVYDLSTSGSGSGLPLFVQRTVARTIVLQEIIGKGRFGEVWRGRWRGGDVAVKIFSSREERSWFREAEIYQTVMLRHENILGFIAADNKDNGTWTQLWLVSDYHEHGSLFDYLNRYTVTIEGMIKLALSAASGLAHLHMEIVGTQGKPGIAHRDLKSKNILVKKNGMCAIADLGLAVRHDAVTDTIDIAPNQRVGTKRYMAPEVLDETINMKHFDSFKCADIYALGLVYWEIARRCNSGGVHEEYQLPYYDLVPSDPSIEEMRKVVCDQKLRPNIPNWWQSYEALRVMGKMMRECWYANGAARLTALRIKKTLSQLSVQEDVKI
The experiment in a line: Selectivity Ki, ALK4. It is filed as biochemical.

Data set [4] is described as follows: Plasma protein binding, human. It is filed as in vitro ADME. Conditions: read-out: Plasma protein binding (% Fu) Human.
Data set [5] concerns Hepcidin expression. The data set can be described thus: In vitro model of Hepcidin expression (HAMP/HPRT1, alone and with BMP-6). It is filed as cell-based. Conditions: as compared to control (FIGS. 6-9).
The target of another data set is T4, ALK2 (Homo sapiens, UniProt Q04771).
T4 sequence (Q04771 21-509): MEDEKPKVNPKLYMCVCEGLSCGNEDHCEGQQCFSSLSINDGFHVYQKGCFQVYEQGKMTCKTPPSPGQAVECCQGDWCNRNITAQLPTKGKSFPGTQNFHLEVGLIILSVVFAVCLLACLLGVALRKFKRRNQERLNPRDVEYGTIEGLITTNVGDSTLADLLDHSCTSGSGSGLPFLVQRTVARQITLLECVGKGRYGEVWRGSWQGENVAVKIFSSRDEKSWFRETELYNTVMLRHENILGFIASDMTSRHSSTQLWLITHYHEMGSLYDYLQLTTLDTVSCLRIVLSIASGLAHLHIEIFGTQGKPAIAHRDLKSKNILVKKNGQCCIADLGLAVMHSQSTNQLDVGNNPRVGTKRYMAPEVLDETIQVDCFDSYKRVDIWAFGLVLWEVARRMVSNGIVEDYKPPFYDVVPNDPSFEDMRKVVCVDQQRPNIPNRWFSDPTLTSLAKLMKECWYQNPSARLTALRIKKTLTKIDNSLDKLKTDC
The data set can be described thus: Selectivity Ki, ALK2. It is filed as biochemical.

In the next data set the target is ALK6 (Homo sapiens, UniProt O00238). The experiment in a line: Selectivity Ki, ALK6. It is filed as biochemical.
ALK6, sequence (O00238 14-502): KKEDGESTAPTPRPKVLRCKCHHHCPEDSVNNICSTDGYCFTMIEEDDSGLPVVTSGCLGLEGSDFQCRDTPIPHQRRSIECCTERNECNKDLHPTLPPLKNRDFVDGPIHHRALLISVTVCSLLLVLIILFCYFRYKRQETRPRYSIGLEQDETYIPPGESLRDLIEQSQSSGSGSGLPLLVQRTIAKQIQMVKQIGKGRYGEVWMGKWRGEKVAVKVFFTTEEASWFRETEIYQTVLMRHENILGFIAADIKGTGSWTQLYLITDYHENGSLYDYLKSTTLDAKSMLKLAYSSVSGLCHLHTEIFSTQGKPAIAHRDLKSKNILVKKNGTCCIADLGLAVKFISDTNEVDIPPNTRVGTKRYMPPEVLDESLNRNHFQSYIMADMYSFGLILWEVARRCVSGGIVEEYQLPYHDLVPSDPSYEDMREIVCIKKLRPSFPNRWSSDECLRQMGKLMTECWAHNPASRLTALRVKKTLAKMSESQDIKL
A short description of data set [6]: In vitro DMPK intrinsic clearance, human. Type of data set: in vitro ADME.
In a further data set the target is AMPK. The experiment in a line: Selectivity Ki, AMPK. Type of data set: biochemical.
Data set [7] is described as follows: In vitro DMPK intrinsic clearance, rat. It is filed as in vitro ADME.
Data set [8] can be described thus: Plasma protein binding, rat. The note with it: read-out: Plasma protein binding (% Fu) Rat. Type of data set: in vitro ADME.
The mark [9] stands for this setting: read-out: Intrinsic clearance hCLHEP.
Where [10] appears, read: read-out: Intrinsic clearance hCLINT.

TGFβR2, sequence (P37173 23-567): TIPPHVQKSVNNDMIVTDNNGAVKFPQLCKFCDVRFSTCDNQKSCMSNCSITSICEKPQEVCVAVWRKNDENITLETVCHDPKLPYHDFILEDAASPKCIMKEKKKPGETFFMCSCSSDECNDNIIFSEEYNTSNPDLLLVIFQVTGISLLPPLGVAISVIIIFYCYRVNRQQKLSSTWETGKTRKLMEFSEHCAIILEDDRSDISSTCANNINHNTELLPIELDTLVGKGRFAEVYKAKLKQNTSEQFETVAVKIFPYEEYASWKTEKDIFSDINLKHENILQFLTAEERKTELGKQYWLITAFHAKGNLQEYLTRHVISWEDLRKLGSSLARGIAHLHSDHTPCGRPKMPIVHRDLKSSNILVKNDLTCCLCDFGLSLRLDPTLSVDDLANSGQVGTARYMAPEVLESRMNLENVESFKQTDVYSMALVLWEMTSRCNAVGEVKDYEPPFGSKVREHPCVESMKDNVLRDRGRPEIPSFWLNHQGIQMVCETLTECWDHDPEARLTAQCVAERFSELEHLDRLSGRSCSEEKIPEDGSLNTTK

Consider `COc1ccc2nc(C)cc(-c3cnc4cc(-c5ccc(N6CCN(C(C)=O)CC6)cc5)ccn34)c2c1` [Compound 48], for which the Ki – broadly, a dissociation constant, usually derived from enzyme kinetics or from competition with a known ligand – at TGFβR2 was 196 nM; on ALK3 it was under 5.1 nM; on ALK1, 4280 nM; at BMPR2, over 30000 nM; at KDR, 8730 nM; at ALK5, 319 nM. Besides, the inhibition constant (Ki) at ALK4 is 144 nM; at ALK2 it was 338 nM; at ALK6 it was 965 nM; at AMPK, 8700 nM. Also, in the data set on BMP4, inhibition was half-maximal at 185 nM (IC50). Moreover, the fraction unbound in [1] was 0.058; in [4] it was 0.012. The CLint scaled worked out at 71.5 mL/min/kg in data set [2] (read-out: Intrinsic clearance mCLHEP), 349 mL/min/kg in data set [2] (read-out: Intrinsic clearance mCLINT), 19.6 mL/min/kg in [6] (setting [9]) and 294 mL/min/kg in [6] (setting [10]). Also, the “Liver hepcidin mRNA expression” value with hepcidin expression [3] is reported as “reduction of hepcidin expression”. For the same compound, the Hepcidin expression entry in the data set on Hepcidin expression [5] was “reduced Hepcidin expression as compared to control”.
Turning to `Cc1cc(-c2cnc3cc(-c4ccc(C5CCN(C(C)C)CC5)cc4)ccn23)c2cc(F)ccc2n1` [Compound 168], half-maximal inhibition with BMP4 (IC50) required 392 nM. The fraction unbound in [1] was found to be 0.009; in data set [4], 0.021; in data set [8], 0.014. The Ki on ALK3 stood at 34.6 nM; at ALK1, 179 nM; at ALK2, 7.2 nM. Moreover, the CLint scaled in data set [6] (setting [9]) is 6.1 mL/min/kg; in data set [6] (setting [10]) it was 8.6 mL/min/kg; in [7] (read-out: Intrinsic clearance rCLHEP), 14.5 mL/min/kg; in data set [7] (read-out: Intrinsic clearance rCLINT) it was 18.2 mL/min/kg.
